Experimental data as given in patent US20240400572A1, “COMPOUNDS AND METHODS FOR TREATING CANCERS THAT ARE MGMT DEFICIENT REGARDLESS OF MMR STATUS” (Yale University, priority 2021, published 2024).

How the values were obtained:
[1] = Maximum tolerated dose study; assay type: in vivo
Experimental: Healthy mice were treated with escalating doses of KL-50 (4a) (0, 25, 50, 100, and 200 mg/kg×1 dose), and monitored over time for changes in both weights and hematologic profiles. […] As the main dose limiting systemic toxicity of TMZ (1a) is myelosuppression, we measured complete blood counts for all mice on day 0 before treatment and subsequently on day 7 after drug administration.

LN229 MGMT− MMR+ cells = assay: Anticancer activity towards LN229 human brain glioblastoma cells (nuclei count after 120 hours); assay type: cell-based; conditions: LN-229, LN229 quad cells, 200 μM to 0.1 uM
Experimental: Exemplary compounds were evaluated for activity against LN229 human brain glioblastoma cells. Experimental procedures and results are provided elsewhere herein.
LN229 quad cells were maintained in Dulbecco's Modified Eagle Medium (DMEM) supplemented with 10% fetal bovine serum. Cells were plated into sterile black with glass bottom 384-well plates (Cellvis) at a concentration of 1,000 cells/well (20 μL total volume) using a MultiDrop (Thermo Fisher). Then, assay plates were centrifuged at 300 rpm for 2 seconds and incubated overnight in a 37° C. 5% CO2 incubator. Compounds were prepared as 100 mM stocks in DMSO and stored protected from light at −20′C until use. Prior to compound addition, the stock solutions of compound were diluted two-fold serially in DMSO from 100 mM down to 0.05 mM in a 384-well Source plate. Vehicle control wells containing DMSO and positive control wells containing 10 mM bortezomib were also added to the Source plate. An aliquot in the amount of 40 nL of compound stock solution or DMSO vehicle was transferred from the source plate to the cell assay plate using an Echo Acoustic dispense (Beckman). Three replicate dilution curves of each compound were run on each assay plate. An aliquot in the amount of 120 nL of a 10 mM bortezomib solution was transferred to the positive control wells resulting in a final concentration of 60 μM. The final concentration of compounds ranged from 200 μM to 0.1 uM (12-point, 2-fold dilution dose response curve), and the final DMSO concentration was 0.2%.
Assay plates were centrifuged at 500 rpm for 2 seconds and incubated for 120 hours at 37° C. in a humidified 5% CO2 incubator. Following incubation, cells were fixed with 4% paraformaldehyde and stained with DAPI for nuclei visualization. The images were acquired on the InCell 2200 high content imager (GE, now […]), and quantified using InCell Analyzer image analysis software. Z prime factor, signal-to-background and coefficient of variation were calculated for each assays plate using mean and standard deviation values of the negative (vehicle) and positive (bortezomib) control wells to ensure assay robustness. Raw cell count data for test compounds was normalized to percent viability relative to the DMSO vehicle control. Data was plotted in GraphPad Prism using a variable slope 4-parameter fit.

[2] = test system: LN229 MGMT−/MMR− intracranial tumors; assay: Anti-cancer activity in mice having tumors formed from LN-229 human brain glioblastoma cells; assay type: in vivo, mouse; conditions: 25 mg/kg PO for 5 days; compared with vehicle, TMZ, or KL50
Experimental: Mice bearing tumors formed from LN-229 human brain glioblastoma cells were prepared as follows: LN229 MGMT−/MMR− cells stably expressing firefly luciferase (lentivirus-plasmids from Cellomics Technology; PLV-10003) were injected intracranially into mice using a stereotactic injector. For this procedure, 1.5 million LN229 MGMT−/MMR− cells in 5 μl PBS were injected into the brain of the mice subjects, and then the mice were imaged weekly using the IVIS Spectrum In Vivo Imaging System (PerkinElmer) according to the manufacturer's protocol. Images were taken on a weekly basis and acquired 10 min post intraperitoneal injection with d-luciferin (150 mg/kg of animal mass). Tumors were allowed to grow to an average of 1.0×10^8 RLU before randomization of the mice.
Treatments using study compounds were administered PO (oral gavage), with 10% cyclodextrin vehicle control or study compound, according to the indicated treatment regimen. Animals were observed daily, with weekly tumor imaging and body weight measurements. Quantification of BLI flux (photons/sec) was made through the identification of a region of interest (ROI) for each tumor.
Study compounds were administered to mice at a dose of 25 mg/kg PO for 5 days; thereafter no further study compound was administered to the mice.
Statistical analysis of data was performed using GraphPad Prism software. Data was presented as mean±SEM. […]

Compound | mice observably ill warranting euthanasia ([1]; 200 mg/kg × 1 dose) | weight loss ([1]; 100 or 200 mg/kg × 1 dose, regressed to baseline at the end of one week) | toxicity in the remaining cohorts (in words) ([1]; cohorts below 200 mg/kg × 1 dose) | complete blood counts (in words) ([1]; day 7 after drug administration, all cohorts) | tolerability (in words) ([1]; healthy mice, 0, 25, 50, 100, and 200 mg/kg × 1 dose) | IC50 (LN229 MGMT− MMR+ cells) | duration of survival (in words) [2]
NC(=O)c1ncn2c(=O)n(CCF)nnc12 [KL-50, 3-(2-fluoroethyl)-4-oxo-3H,4H-imidazo[4,3-d][1,2,3,5]tetrazine-8-carboxamide] | Two of three mice | greater than 10% | no evidence of toxicity | within normal physiological ranges | well-tolerated |  | 
CNC(=O)c1ncn2c(=O)n(CCF)nnc12 [Compound I-1, 3-(2-fluoroethyl)-N-methyl-4-oxo-3H,4H-imidazo[4,3-d][1,2,3,5]tetrazine-8-carboxamide] |  |  |  |  |  | 10 to 20 µM | longer duration of survival
